Each structure is given as a SMILES string.

Tyrosine-protein kinase JAK2, sequence (O60674 whole entry): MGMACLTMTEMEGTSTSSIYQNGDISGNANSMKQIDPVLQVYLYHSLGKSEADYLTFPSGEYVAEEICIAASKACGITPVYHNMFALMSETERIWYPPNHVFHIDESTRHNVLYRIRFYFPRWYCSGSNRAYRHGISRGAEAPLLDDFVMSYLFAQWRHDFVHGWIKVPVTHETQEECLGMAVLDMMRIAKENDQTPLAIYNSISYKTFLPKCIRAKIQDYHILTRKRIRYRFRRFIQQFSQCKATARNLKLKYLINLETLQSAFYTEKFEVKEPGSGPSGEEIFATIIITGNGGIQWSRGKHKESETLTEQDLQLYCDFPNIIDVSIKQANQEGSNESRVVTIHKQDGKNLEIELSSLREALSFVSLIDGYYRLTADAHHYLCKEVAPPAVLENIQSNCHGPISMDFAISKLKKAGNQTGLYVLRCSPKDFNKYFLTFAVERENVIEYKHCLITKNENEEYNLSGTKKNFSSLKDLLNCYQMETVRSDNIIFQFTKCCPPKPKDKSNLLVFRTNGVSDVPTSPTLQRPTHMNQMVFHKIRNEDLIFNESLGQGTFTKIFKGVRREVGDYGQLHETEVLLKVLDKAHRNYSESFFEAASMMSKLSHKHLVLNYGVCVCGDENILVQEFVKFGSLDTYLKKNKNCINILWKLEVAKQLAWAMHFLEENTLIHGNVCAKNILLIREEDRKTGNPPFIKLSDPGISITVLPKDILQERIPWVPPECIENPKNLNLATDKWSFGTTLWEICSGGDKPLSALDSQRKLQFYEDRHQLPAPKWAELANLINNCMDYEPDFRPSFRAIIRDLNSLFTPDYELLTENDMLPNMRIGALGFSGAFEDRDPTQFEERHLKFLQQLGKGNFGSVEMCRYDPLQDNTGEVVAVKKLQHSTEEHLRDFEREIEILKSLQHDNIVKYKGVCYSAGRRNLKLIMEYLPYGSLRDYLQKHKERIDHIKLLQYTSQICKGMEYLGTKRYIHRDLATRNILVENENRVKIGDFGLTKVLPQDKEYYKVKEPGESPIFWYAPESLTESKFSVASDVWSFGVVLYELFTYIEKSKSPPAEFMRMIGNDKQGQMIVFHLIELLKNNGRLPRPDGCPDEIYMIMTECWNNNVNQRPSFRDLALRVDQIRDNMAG

The first assay deals with Tyrosine-protein kinase BTK (Homo sapiens, UniProt Q06187). As to the kind of experiment: Inhibition of BTK (unknown origin) after 1 hr by TR-FRET assay. On the technique in general: TR-FRET usually uses a lanthanide donor and a delayed reading to cut background.
Tyrosine-protein kinase BTK, sequence (Q06187 whole entry): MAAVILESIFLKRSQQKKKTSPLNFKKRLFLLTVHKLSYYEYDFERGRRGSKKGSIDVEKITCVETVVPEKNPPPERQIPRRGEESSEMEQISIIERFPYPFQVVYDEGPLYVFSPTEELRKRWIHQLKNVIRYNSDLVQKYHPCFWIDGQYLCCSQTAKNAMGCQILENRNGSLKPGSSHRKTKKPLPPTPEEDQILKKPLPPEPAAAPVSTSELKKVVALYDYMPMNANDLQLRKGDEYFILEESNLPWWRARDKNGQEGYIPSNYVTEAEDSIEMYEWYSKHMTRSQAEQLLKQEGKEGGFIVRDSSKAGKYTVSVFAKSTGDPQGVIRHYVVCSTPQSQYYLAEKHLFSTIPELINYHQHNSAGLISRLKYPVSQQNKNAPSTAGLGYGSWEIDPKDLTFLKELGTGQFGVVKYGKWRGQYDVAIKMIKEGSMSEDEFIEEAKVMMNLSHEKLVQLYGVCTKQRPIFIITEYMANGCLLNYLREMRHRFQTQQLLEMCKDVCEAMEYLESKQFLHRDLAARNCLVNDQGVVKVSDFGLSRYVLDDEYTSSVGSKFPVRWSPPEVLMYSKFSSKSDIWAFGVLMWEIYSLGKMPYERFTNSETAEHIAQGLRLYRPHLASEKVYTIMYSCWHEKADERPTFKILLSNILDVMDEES
`CC(C)(C)OC(=O)N1CC=C(c2cnc(N)c3c(-c4ccc(Oc5ccccc5)cc4)csc23)CC1`: 1660 nM corresponded to half-maximal inhibition (IC50).
Still for that read-out and setting: in the case of `Nc1ncc(-c2cnn(CC(=O)N3CCCCC3)c2)c2scc(-c3ccc(Oc4ccccc4)cc3)c12` it was 12.2 nM.
The same measure, in the same setting: as for `Nc1ncc(-c2cnn(CC(=O)N3CCOCC3)c2)c2scc(-c3ccc(Oc4ccccc4)cc3)c12`, the figure is 11.8 nM; as for `Nc1ncc(-c2cnn(C3CCCNC3=O)c2)c2scc(-c3ccc(Oc4ccccc4)cc3)c12` (centres undefined), 9.5 nM.
`CC(=O)Cn1cc(-c2cnc(N)c3c(-c4ccc(Oc5ccccc5)cc4)csc23)cn1`: the IC50 (commonly the midpoint of a concentration-inhibition curve) stood at 7.8 nM.
Still for that read-out and setting: as for `C#CCn1cc(-c2cnc(N)c3c(-c4ccc(Oc5ccccc5)cc4)csc23)cn1`, the figure is 7.4 nM.
Still for that read-out and setting: as for `CNC(=O)CCn1cc(-c2cnc(N)c3c(-c4ccc(Oc5ccccc5)cc4)csc23)cn1`, the figure is 25.5 nM.
On the same count and under the same terms, as for `CS(=O)(=O)OC1CCCN(C(=O)CCn2cc(-c3cnc(N)c4c(-c5ccc(Oc6ccccc6)cc5)csc34)cn2)C1` (centres undefined), the figure is 54.9 nM; as for `Nc1ncc(-c2cnn(CCC(=O)O)c2)c2scc(-c3ccc(Oc4ccccc4)cc3)c12`, 21 nM.
Compound `C=CC(=O)NCCn1cc(-c2cnc(N)c3c(-c4ccc(Oc5ccccc5)cc4)csc23)cn1` registered an IC50 of 9.9 nM.
Same read-out and setting: as for `C=CC(=O)n1cc(-c2cnc(N)c3c(-c4ccc(Oc5ccccc5)cc4)csc23)cn1`, the figure is 1690 nM.
On the same count and under the same terms, as for `CC(C)(C)OC(=O)N1C=C(c2cnc(N)c3c(-c4ccc(Oc5ccccc5)cc4)csc23)CCC1`, the figure is 2870 nM; as for `Nc1ncc(C2=CNCCC2)c2scc(-c3ccc(Oc4ccccc4)cc3)c12`, 3600 nM; as for `CNC(=O)CN1C=C(c2cnc(N)c3c(-c4ccc(Oc5ccccc5)cc4)csc23)CCC1`, 456 nM.
Compound `C=CC(=O)N1C=C(c2cnc(N)c3c(-c4ccc(Oc5ccccc5)cc4)csc23)CCC1` yielded an IC50 of 343 nM.
Compound `Nc1ncc(C2CCCNC2)c2scc(-c3ccc(Oc4ccccc4)cc3)c12` (centres undefined) had an IC50 of over 10000 nM.
On the same count and under the same terms, in the case of `C=CC(=O)N1CCCC(c2cnc(N)c3c(-c4ccc(Oc5ccccc5)cc4)csc23)C1` (centres undefined) it was 2300 nM.
Same read-out and setting: as for `Nc1ncc(C2=CCNCC2)c2scc(-c3ccc(Oc4ccccc4)cc3)c12`, the figure is 854 nM.
In turn, `C=CC(=O)N1CC=C(c2cnc(N)c3c(-c4ccc(Oc5ccccc5)cc4)csc23)CC1` returned a 50% inhibitory concentration (IC50) of 183 nM.
The same measure, in the same setting: in the case of `Nc1ncc(C2CCNCC2)c2scc(-c3ccc(Oc4ccccc4)cc3)c12` it was over 10000 nM.

For another assay, the target named is T1, Tyrosine-protein kinase JAK3 (Homo sapiens, UniProt P52333).
T1 sequence (P52333 whole entry): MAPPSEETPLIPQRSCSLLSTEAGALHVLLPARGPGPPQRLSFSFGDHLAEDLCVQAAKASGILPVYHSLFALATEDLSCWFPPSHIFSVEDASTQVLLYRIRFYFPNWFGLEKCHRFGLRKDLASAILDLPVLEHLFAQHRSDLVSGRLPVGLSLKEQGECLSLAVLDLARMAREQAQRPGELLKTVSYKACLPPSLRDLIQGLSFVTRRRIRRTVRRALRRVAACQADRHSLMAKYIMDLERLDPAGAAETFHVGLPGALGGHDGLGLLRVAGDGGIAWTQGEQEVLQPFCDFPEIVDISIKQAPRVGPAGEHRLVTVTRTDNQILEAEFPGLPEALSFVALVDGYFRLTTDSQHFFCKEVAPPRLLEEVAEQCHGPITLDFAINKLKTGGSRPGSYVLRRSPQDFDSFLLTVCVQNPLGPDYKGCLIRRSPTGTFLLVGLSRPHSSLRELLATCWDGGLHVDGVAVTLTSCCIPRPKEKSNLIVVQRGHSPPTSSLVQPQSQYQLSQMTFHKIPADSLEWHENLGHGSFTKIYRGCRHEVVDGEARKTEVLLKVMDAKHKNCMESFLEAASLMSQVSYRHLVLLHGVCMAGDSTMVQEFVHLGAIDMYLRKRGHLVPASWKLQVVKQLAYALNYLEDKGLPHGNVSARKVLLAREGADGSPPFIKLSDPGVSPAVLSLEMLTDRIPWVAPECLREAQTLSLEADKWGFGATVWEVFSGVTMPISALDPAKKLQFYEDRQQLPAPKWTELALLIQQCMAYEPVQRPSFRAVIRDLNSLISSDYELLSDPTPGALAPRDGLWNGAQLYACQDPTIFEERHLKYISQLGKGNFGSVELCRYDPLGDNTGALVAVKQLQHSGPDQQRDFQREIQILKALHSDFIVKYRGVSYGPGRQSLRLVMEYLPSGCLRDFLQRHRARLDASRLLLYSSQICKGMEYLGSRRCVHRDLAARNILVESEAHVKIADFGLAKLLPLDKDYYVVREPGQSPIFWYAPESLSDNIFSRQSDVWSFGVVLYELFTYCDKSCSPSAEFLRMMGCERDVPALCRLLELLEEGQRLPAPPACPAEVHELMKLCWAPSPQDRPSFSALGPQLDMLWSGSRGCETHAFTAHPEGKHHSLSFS
Kind of assay: Inhibition of JAK3 (unknown origin) after 1 hr by ELISA based assay. Background: In an ELISA, binding on a coated surface is turned into a signal by an enzyme label.
In turn, `Nc1ncc(-c2cnn(CC(=O)N3CCOCC3)c2)c2scc(-c3ccc(Oc4ccccc4)cc3)c12` came in with an IC50 of 3070 nM.

Another assay deals with Vascular endothelial growth factor receptor 2 (Homo sapiens, UniProt P35968). Kind of assay: Inhibition of KDR (unknown origin) after 1 hr by ELISA based assay.
Vascular endothelial growth factor receptor 2, sequence (P35968 whole entry): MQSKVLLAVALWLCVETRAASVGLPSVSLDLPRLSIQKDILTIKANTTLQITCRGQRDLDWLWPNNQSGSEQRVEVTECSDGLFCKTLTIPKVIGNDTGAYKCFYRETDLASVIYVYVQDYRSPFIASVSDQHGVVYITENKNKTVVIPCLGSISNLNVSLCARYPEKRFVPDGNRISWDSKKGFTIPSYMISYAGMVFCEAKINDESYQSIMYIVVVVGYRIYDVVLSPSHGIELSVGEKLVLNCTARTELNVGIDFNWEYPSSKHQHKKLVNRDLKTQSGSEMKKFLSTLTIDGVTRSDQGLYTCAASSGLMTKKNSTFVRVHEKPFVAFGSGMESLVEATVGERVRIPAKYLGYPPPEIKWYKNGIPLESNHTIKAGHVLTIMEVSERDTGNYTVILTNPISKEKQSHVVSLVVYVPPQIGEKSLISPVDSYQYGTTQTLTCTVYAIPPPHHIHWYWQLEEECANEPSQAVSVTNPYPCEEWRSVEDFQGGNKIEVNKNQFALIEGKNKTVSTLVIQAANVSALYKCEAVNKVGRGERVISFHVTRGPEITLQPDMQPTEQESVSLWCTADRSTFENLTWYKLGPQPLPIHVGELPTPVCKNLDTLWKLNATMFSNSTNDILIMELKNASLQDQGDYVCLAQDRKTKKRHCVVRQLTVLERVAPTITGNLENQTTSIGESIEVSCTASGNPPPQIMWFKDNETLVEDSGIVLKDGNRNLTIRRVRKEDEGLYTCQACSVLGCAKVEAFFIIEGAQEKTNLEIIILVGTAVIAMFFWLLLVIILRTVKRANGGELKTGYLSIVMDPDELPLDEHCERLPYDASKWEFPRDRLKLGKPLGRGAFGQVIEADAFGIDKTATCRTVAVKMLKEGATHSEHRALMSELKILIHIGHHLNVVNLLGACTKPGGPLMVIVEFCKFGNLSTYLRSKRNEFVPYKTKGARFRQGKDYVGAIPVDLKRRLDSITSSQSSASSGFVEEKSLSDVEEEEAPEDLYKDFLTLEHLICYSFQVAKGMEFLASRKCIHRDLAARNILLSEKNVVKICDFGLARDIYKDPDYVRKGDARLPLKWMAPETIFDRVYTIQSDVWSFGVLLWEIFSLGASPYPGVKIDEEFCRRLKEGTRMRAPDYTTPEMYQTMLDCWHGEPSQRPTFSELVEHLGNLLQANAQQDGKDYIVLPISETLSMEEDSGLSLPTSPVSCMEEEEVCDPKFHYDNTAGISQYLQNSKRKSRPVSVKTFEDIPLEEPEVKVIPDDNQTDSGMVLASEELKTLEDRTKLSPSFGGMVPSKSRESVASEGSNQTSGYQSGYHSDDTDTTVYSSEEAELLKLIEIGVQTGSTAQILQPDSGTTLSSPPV
As for `Nc1ncc(-c2cnn(CC(=O)N3CCOCC3)c2)c2scc(-c3ccc(Oc4ccccc4)cc3)c12`, inhibition was half-maximal at 191 nM (IC50).

Another assay concerns the target Tyrosine-protein kinase JAK2 (Homo sapiens, UniProt O60674). As to the kind of experiment: Inhibition of JAK2 (unknown origin) after 1 hr by ELISA based assay.
As for `Nc1ncc(-c2cnn(CC(=O)N3CCOCC3)c2)c2scc(-c3ccc(Oc4ccccc4)cc3)c12`, the IC50 stood at 6860 nM.

For the next assay, the target named is Hepatocyte growth factor receptor (Homo sapiens, UniProt P08581). Kind of assay: Inhibition of c-MET (unknown origin) after 1 hr by ELISA based assay.
Hepatocyte growth factor receptor, sequence (P08581 whole entry): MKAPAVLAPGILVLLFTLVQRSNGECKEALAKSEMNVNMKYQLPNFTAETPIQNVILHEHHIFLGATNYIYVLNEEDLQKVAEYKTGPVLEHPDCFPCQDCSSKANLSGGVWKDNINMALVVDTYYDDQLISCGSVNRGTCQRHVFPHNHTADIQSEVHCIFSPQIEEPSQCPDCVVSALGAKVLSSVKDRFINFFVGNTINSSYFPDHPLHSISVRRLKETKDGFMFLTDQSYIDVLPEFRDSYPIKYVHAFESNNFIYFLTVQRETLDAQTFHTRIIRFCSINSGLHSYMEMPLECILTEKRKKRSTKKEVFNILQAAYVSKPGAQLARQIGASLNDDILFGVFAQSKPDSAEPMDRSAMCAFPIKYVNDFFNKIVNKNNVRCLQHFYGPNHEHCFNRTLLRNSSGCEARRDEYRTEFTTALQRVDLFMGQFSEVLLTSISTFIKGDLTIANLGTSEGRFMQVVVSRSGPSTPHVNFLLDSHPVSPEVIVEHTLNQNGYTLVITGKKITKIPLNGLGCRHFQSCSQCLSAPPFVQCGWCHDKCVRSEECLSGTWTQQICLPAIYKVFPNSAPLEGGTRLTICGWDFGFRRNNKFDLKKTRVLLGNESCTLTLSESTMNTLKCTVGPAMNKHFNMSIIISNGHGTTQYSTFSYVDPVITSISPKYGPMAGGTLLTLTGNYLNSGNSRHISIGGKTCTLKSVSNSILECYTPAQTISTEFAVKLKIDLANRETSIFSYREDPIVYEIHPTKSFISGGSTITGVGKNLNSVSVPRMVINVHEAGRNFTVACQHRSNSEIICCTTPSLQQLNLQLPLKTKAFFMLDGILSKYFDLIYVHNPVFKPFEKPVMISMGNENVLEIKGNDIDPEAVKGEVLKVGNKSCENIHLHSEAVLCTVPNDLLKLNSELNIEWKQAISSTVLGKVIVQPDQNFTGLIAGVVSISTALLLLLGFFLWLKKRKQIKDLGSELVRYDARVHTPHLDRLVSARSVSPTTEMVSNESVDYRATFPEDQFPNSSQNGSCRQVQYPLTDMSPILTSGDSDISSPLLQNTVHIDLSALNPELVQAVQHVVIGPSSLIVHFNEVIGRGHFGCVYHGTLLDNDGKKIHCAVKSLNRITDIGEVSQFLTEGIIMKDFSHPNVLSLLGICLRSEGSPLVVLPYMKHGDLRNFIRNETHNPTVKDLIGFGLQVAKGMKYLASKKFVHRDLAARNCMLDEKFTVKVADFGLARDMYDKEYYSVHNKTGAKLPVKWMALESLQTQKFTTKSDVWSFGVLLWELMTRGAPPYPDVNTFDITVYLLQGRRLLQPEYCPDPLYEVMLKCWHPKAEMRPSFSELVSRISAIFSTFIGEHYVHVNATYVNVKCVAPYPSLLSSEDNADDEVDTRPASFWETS
For the compound `Nc1ncc(-c2cnn(CC(=O)N3CCOCC3)c2)c2scc(-c3ccc(Oc4ccccc4)cc3)c12`, the IC50 came to 2430 nM.

These data come from ChEMBL document CHEMBL3611978, “Synthesis and biological evaluation of novel 7-substituted 3-(4-phenoxyphenyl)thieno[3,2-c]pyridin-4-amines as potent Bruton's tyrosine kinase (BTK) inhibitors” (Bioorg Med Chem, 2015).
